The text below walks through data of patent US6489365B1, “Amidine derivatives, the preparation and use thereof as medicaments with Itb4 antagonistic effect” (Boehringer Ingelheim KG, priority 1992, dated 2002).

Experiment [1] deals with LTB4-induced neutrophilic influx in the mouse ear. Description: Leukotrien-B4-induced accumulation of neutrophiles in the mouse ear. The format is in vivo. The settings on record: po, read-out: LTB4-induced neutroph. Accum. p.o. ED50. The protocol: c) Leukotrien-B4-indicated Accumulation of Neutrophiles in the Mouse Ear
Evaluation of the neutrophilic influx by photometric measurement (mOD/min) of the myeloperoxidase activity (Bradley et al.: J. Invest. Dermatol. 78, 206, 1982) in the skin of the ear. Increase 6 hours after topical treatment of the left ear with LTB4 (250 ng on each side) compared with the right ear (2×5 μl acetone as solvent).
Substance administered by oral route in 1% tylose 300, 30 minutes before the LTB4 stimularion.

Experiment [2] relates to neutrophilic granulocytes. Description: LTB4-induced aggregation of neutrophilic granulocytes in the guinea-pig (in vitro). The format is cell-based. The following applies: Cavia porcellus, 2 min, inhibition 2 minutes after incubation with test substance in polydiol/DMSO, read-out: LTB4-induced neutroph. Aggr. EC50. The method, then:
b) Aggregation of Neutrophilic Granulocytes in the Guinea-pig
Indicated by LTB4 in vitro (increase in light transmission in the aggregometer, recorded in mm; each experiment repeated twice): inhibition 2 minutes after incubation with test substance in polydiol/DMSO.

Experiment [3] deals with T1, LTB4 receptors (Homo sapiens, UniProt Q15722).
T1 construct: vital U937 cells (differentiated human monocytary cell line with naturally expressed LTB4 receptors); endogenous in cells; host or cells: U937 cells (differentiated, intact/vital)
Description: U937 receptor binding test/LTB4. The following applies: 3H-LTB4 (3 nM), vital U937 cells, incubation 2 hours at 0°C; read-out: Receptor binding U937-8 Ki. The method, then: a) U937—Receptor Binding Test/LTB4
The binding of ^3H-LTB4 (3 nM) to vital U937 cells (differentiated human monocytary cell line with naturally expressed LTB4 receptors) is inhibited, in dosage dependent manner, by an increasing concentration of the test substance (incubation 2 hours at 0°C.). After the unbound ^3H-LTB4 has been separated off by membrane filtration, the radioactivity of the bound LTB4 receptor/^3H-LTB4 complex is quantified by scintillation measurement. The affinity (inhibition constant Kj) was determined by repeated adaptation of a displacement curve to the measurements (program: “coupled mass equilibria” on Wang computer).

Each structure is given as a SMILES string.

T1 sequence (Q15722 whole entry): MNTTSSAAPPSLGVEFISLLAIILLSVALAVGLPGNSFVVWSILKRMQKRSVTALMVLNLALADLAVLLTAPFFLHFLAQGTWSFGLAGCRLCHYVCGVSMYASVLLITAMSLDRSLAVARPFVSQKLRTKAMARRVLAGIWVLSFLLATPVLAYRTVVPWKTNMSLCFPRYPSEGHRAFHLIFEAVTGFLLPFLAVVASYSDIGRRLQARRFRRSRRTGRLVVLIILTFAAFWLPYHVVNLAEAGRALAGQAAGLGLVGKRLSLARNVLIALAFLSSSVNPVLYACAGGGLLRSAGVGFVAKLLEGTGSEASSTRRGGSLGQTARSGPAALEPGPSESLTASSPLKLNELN

Usually ED50 stands for the dose at which the effect has come halfway, by size or by number of responders. The term EC50 denotes the concentration giving half of the maximal effect. The term Ki denotes the equilibrium dissociation constant of an inhibitor or competing ligand from its target. For `CCCc1c(OC)cccc1OCCCCOc1ccc(C(=N)N)cc1`, in experiment [1], the median effective dose (ED50) is 0.8 mg/kg. For the same molecule, in experiment [2], the EC50 worked out at 1900 nM. Also, in experiment [3], the Ki was 12 nM.
